# Measurements taken from patent publication US7541360B2, “4-amino-7,8-dihydropteridines, pharmaceutical compositions containing them and their use for the treatment of diseases which are caused by an increased nitric oxide level” (Vasopharm GmbH, priority 2003, dated 2009).
# Experiment: In vivo stability: half-life for blood clearance after intravenous injection, venous blood analysed by LC-MS/MS
# Conditions: i.v. 1-10 mg/kg, male Sprague-Dawley rats; for t1/2 (dihydro), half-life for blood clearance: corresponding dihydro-derivative formed spontaneously in vivo from the injected tetrahydro-compound, venous blood; for t1/2 (tetrahydro), half-life for blood clearance: injected tetrahydro-compound, venous blood up to eight hours
# Protocol: The compounds 4-N-cyclohexylmethylamino-5,6,7,8-tetrahydrobiopterin (compound A), 2-amino-4-piperidino-6-phenyl-(R,S)-5,6,7,8-tetrahydropteridin (compound B) and 2-amino-4-di-n-propylamino-6-(4-methoxyphenyl)-(R,S)-5,6,7,8-tetrahydropteridin (compound C) were intravenously injected into male Sprague-Dawley rats (1-10 mg/kg). Venous blood samples were taken up to eight hours after the injections and analyzed for the injected tetrahydro-compounds and for their corresponding dihydro-derivatives, which are spontaneously formed in vivo, by LC-MS/MS.
"t1/2 (dihydro), half-life for blood clearance [min]","t1/2 (tetrahydro), half-life for blood clearance",Compound
~20,<<5 min,"Nc1nc2c(c(N3CCCCC3)n1)NC(c1ccccc1)CN2 (racemic) [Compound B, 2-amino-4-piperidino-6-phenyl-(R,S)-5,6,7,8-tetrahydropteridin]"
~30,<<5 min,"2-amino-4-di-n-propylamino-6-(4-methoxyphenyl)-(R,S)-5,6,7,8-tetrahydropteridin [Compound C]"
48,<<5 min,"CC(O)C(O)C1CNc2nc(N)nc(NCC3CCCCC3)c2N1 (stereo not drawn) [Compound A, 4-N-cyclohexylmethylamino-5,6,7,8-tetrahydrobiopterin]"
